In US20250213555A1, “SUBSTITUTED TETRAHYDROFURAN ANALOGS AS MODULATORS OF SODIUM CHANNELS” (VERTEX PHARMACEUTICALS INCORPORATED, priority 2021, published 2025):

Target: human Nav 1.8 (Homo sapiens, UniProt Q9Y5Y9)
Experiment: E-VIPR assay detecting and measuring Nav inhibition properties
Type: cell-based
Details: HEK cells expressing a truncated form of human Nav 1.8; compound numbers without "*" (not marked as run in the presence of human serum); read-out: measured IC50 value in the E-VIPR Assay
Procedure, shortened: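 Nav inhibition was read by E-VIPR: cells were electrically stimulated while coumarin/oxonol FRET emissions were recorded. Cells were HEK expressing a truncated human Nav 1.8 and co-transduced with KIR2.1, and were assayed in 25% final human serum.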

human Nav 1.8, sequence (Q9Y5Y9 126-399 limits assumed): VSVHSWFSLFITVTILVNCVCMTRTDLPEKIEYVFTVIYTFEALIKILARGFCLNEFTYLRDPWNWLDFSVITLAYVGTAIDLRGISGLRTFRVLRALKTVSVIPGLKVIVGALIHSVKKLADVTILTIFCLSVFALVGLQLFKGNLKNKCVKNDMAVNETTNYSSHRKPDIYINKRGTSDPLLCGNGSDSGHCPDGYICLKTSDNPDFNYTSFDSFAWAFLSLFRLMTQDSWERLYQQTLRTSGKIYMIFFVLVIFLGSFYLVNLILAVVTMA
human Nav 1.8, sequence (Q9Y5Y9 660-890 limits assumed): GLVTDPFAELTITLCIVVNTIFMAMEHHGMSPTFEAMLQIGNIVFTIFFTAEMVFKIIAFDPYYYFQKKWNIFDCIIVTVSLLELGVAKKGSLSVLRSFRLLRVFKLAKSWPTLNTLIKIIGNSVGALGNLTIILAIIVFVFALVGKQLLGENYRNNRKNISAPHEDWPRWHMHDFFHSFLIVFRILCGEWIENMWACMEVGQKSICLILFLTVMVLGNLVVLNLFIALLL
human Nav 1.8, sequence (Q9Y5Y9 1148-1722 limits assumed): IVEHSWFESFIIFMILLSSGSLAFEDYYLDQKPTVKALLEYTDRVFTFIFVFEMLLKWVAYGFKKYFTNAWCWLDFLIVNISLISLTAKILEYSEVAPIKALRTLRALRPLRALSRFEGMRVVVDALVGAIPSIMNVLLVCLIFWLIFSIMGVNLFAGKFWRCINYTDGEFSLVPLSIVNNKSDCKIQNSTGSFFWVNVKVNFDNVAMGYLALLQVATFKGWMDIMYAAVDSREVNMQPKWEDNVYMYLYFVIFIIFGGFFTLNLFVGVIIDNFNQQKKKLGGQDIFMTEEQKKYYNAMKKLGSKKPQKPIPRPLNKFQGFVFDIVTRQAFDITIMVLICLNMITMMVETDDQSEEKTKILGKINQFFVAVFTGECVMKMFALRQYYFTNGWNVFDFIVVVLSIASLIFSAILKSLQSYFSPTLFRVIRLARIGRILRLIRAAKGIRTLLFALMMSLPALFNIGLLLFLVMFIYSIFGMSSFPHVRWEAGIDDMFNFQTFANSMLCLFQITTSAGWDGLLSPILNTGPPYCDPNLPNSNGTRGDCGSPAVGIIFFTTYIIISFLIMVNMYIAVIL

Row | IC50 [nM] | SMILES
1 | 10 to 100 | C[C@H]1[C@@H](c2ccc(F)c(F)c2OCCN[C@@H]2CCOC2)[C@H](C(=O)Nc2ccnc(C(N)=O)c2)O[C@@]1(C)C(F)(F)F [Compound 116, 4-((2R,3S,4S,5R)-3-(3,4-difluoro-2-(2-(((R)-tetrahydrofuran-3-yl)amino)ethoxy)phenyl)-4,5-dimethyl-5-(trifluoromethyl)tetrahydrofuran-2-carboxamido)picolinamide]
2 | 10 to 100 | C[C@H]1[C@@H](c2ccc(F)c(F)c2OCCN[C@H]2CCOC2)[C@H](C(=O)Nc2ccnc(C(N)=O)c2)O[C@@]1(C)C(F)(F)F [Compound 117, 4-((2R,3S,4S,5R)-3-(3,4-difluoro-2-(2-(((S)-tetrahydrofuran-3-yl)amino)ethoxy)phenyl)-4,5-dimethyl-5-(trifluoromethyl)tetrahydrofuran-2-carboxamido)picolinamide]
3 | 10 to 100 | C[C@H]1[C@@H](c2ccc(F)c(F)c2OCCNC2COC2)[C@H](C(=O)Nc2ccnc(C(N)=O)c2)O[C@@]1(C)C(F)(F)F [Compound 118, 4-((2R,3S,4S,5R)-3-(3,4-difluoro-2-(2-(oxetan-3-ylamino)ethoxy)phenyl)-4,5-dimethyl-5-(trifluoromethyl)tetrahydrofuran-2-carboxamido)picolinamide]
4 | 10 to 100 | C[C@H]1[C@@H](c2ccc(F)c(F)c2OCCN2CC(C)(O)C2)[C@H](C(=O)Nc2ccnc(C(N)=O)c2)O[C@@]1(C)C(F)(F)F [Compound 122, 4-((2R,3S,4S,5R)-3-(3,4-difluoro-2-(2-(3-hydroxy-3-methylazetidin-1-yl)ethoxy)phenyl)-4,5-dimethyl-5-(trifluoromethyl)tetrahydrofuran-2-carboxamido)picolinamide]
5 | < 10 | C[C@H]1[C@@H](c2ccc(F)c(F)c2OCCN2CC3CCC2CO3)[C@H](C(=O)Nc2ccnc(C(N)=O)c2)O[C@@]1(C)C(F)(F)F (stereo partly drawn) [Compound 124, 4-((2R,3S,4S,5R)-3-(2-(2-(2-oxa-5-azabicyclo[2.2.2]octan-5-yl)ethoxy)-3,4-difluorophenyl)-4,5-dimethyl-5-(trifluoromethyl)tetrahydrofuran-2-carboxamido)picolinamide]
6 | < 10 | C[C@H]1[C@@H](c2ccc(F)c(F)c2OCCN2CCC23COC3)[C@H](C(=O)Nc2ccnc(C(N)=O)c2)O[C@@]1(C)C(F)(F)F [Compound 125, 4-((2R,3S,4S,5R)-3-(2-(2-(6-oxa-1-azaspiro[3.3]heptan-1-yl)ethoxy)-3,4-difluorophenyl)-4,5-dimethyl-5-(trifluoromethyl)tetrahydrofuran-2-carboxamido)picolinamide]
7 | 10 to 100 | C[C@H]1[C@@H](c2ccc(F)c(F)c2OCCN2CC3(CCOC3)C2)[C@H](C(=O)Nc2ccnc(C(N)=O)c2)O[C@@]1(C)C(F)(F)F [Compound 126, 4-((2R,3S,4S,5R)-3-(2-(2-(6-oxa-2-azaspiro[3.4]octan-2-yl)ethoxy)-3,4-difluorophenyl)-4,5-dimethyl-5-(trifluoromethyl)tetrahydrofuran-2-carboxamido)picolinamide]
8 | < 10 | C[C@H]1[C@@H](c2ccc(F)c(F)c2OCCN2CCC3(COC3)C2)[C@H](C(=O)Nc2ccnc(C(N)=O)c2)O[C@@]1(C)C(F)(F)F [Compound 127, 4-((2R,3S,4S,5R)-3-(2-(2-(2-oxa-6-azaspiro[3.4]octan-6-yl)ethoxy)-3,4-difluorophenyl)-4,5-dimethyl-5-(trifluoromethyl)tetrahydrofuran-2-carboxamido)picolinamide]
9 | 10 to 100 | CO[C@@H]1CCN(CCOc2c([C@H]3[C@H](C(=O)Nc4ccnc(C(N)=O)c4)O[C@@](C)(C(F)(F)F)[C@H]3C)ccc(F)c2F)C1 [Compound 128, 4-((2R,3S,4S,5R)-3-(3,4-difluoro-2-(2-((R)-3-methoxypyrrolidin-1-yl)ethoxy)phenyl)-4,5-dimethyl-5-(trifluoromethyl)tetrahydrofuran-2-carboxamido)picolinamide]
10 | 10 to 100 | CO[C@H]1CCN(CCOc2c([C@H]3[C@H](C(=O)Nc4ccnc(C(N)=O)c4)O[C@@](C)(C(F)(F)F)[C@H]3C)ccc(F)c2F)C1 [Compound 129, 4-((2R,3S,4S,5R)-3-(3,4-difluoro-2-(2-((S)-3-methoxypyrrolidin-1-yl)ethoxy)phenyl)-4,5-dimethyl-5-(trifluoromethyl)tetrahydrofuran-2-carboxamido)picolinamide]

Second part, the compound before the results:

Row | SMILES | IC50 [nM]
11 | C[C@H]1[C@@H](c2ccc(F)c(F)c2OCCN2CC(OC(F)F)C2)[C@H](C(=O)Nc2ccnc(C(N)=O)c2)O[C@@]1(C)C(F)(F)F [Compound 119, 4-((2R,3S,4S,5R)-3-(2-(2-(3-(difluoromethoxy)azetidin-1-yl)ethoxy)-3,4-difluorophenyl)-4,5-dimethyl-5-(trifluoromethyl)tetrahydrofuran-2-carboxamido)picolinamide] | < 10
12 | C[C@H]1[C@@H](c2ccc(F)c(F)c2OCCN2CC(C(F)F)C2)[C@H](C(=O)Nc2ccnc(C(N)=O)c2)O[C@@]1(C)C(F)(F)F [Compound 120, 4-((2R,3S,4S,5R)-3-(2-(2-(3-(difluoromethyl)azetidin-1-yl)ethoxy)-3,4-difluorophenyl)-4,5-dimethyl-5-(trifluoromethyl)tetrahydrofuran-2-carboxamido)picolinamide] | < 10
13 | C[C@H]1[C@@H](c2ccc(F)c(F)c2OCCN2CC(C)(F)C2)[C@H](C(=O)Nc2ccnc(C(N)=O)c2)O[C@@]1(C)C(F)(F)F [Compound 121, 4-((2R,3S,4S,5R)-3-(3,4-difluoro-2-(2-(3-fluoro-3-methylazetidin-1-yl)ethoxy)phenyl)-4,5-dimethyl-5-(trifluoromethyl)tetrahydrofuran-2-carboxamido)picolinamide] | < 10
14 | C[C@H]1[C@@H](c2ccc(F)c(F)c2OCCN2CC3(CCOC3)C2)[C@H](C(=O)Nc2ccnc(C(=O)N3CC4(CCOC4)C3)c2)O[C@@]1(C)C(F)(F)F [Compound 123, (2R,3S,4S,5R)-3-(2-(2-(6-oxa-2-azaspiro[3.4]octan-2-yl)ethoxy)-3,4-difluorophenyl)-N-(2-(6-oxa-2-azaspiro[3.4]octane-2-carbonyl)pyridin-4-yl)-4,5-dimethyl-5-(trifluoromethyl)tetrahydrofuran-2-carboxamide] | ≥ 1000
15 | C[C@H]1[C@@H](c2ccc(F)c(F)c2OCCN=S(C)(C)=O)[C@H](C(=O)Nc2ccnc(C(N)=O)c2)O[C@@]1(C)C(F)(F)F [Compound 130, 4-((2R,3S,4S,5R)-3-(2-(2-((dimethyl(oxo)-26-sulfaneylidene)amino)ethoxy)-3,4-difluorophenyl)-4,5-dimethyl-5-(trifluoromethyl)tetrahydrofuran-2-carboxamido)picolinamide] | < 10
16 | C[C@H]1[C@@H](c2ccc(F)c(F)c2OCCN2C3COCC2C3)[C@H](C(=O)Nc2ccnc(C(N)=O)c2)O[C@@]1(C)C(F)(F)F [Compound 131, 4-((2R,3S,4S,5R)-3-(2-(2-(3-oxa-6-azabicyclo[3.1.1]heptan-6-yl)ethoxy)-3,4-difluorophenyl)-4,5-dimethyl-5-(trifluoromethyl)tetrahydrofuran-2-carboxamido)picolinamide] | 10 to 100
17 | C=C(CO)COc1c([C@H]2[C@H](C(=O)Nc3ccnc(C(N)=O)c3)O[C@@](C)(C(F)(F)F)[C@H]2C)ccc(F)c1F [Compound 132] | < 10
